Laboratory results reported in US20220274947A1, “NOVEL HETEROARYL-TRIAZOLE COMPOUNDS AS PESTICIDES” (Bayer Aktiengesellschaft, priority 2019, published 2022).

Key:
Assay type in all cases: in vivo
Rhipicephalus sanguineus = Rhipicephalus sanguineus in-vitro contact test, adult brown dog ticks (RHIPSA Cont); conditions: 48 h, after 48 hours, read-out: activity (efficacy: 100% means all ticks are dead or moribund); for pest or weed control at 1 µg/cm2, 100 g/ha: application rate 1 μg/cm^2 (=100 g/ha); for pest or weed control at 5 µg/cm2, 500 g/ha: application rate 5 μg/cm^2 (=500 g/ha)
How it was run: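 Mortality of adult R. sanguineus was judged 48 h after contact with acetone-applied residues on glass tube walls. Ticks that stayed immotile or moved without coordination when heated to 45–50 °C (max 5 min) counted as dead or moribund.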

Rhipicephalus microplus [1] = test: Rhipicephalus (Boophilus) microplus in-vitro contact test, larval cattle tick, strain Parkhurst (BOOPMI Cont); conditions: application rate 5 μg/cm^2 (=500 g/ha), tick larvae, after 48 hours, read-out: activity (efficacy: 100% means all larvae are dead or moribund)
How it was run: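 Acetone solutions dried onto glass tube walls (900 ppm giving 5 μg/cm^2); 20-50 pyrethroid-resistant Parkhurst larvae added per tube and held 48 h at 27° C., 85% relative humidity. Efficacy scored by negative geotaxis as % dead or moribund larvae.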

Myzus persicae [2] = test: Myzus persicae oral test; conditions: 120 h, read-out: activity (mortality)
How it was run: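 Percent mortality was recorded at day 5, where 0% means no aphids killed. Compound prepared from an acetone concentrate diluted in water and combined with IPL41 medium containing sugar was offered to mixed-stage green peach aphids, which sucked it through a parafilm seal.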

Rhipicephalus microplus [3] = test: Rhipicephalus (Boophilus) microplus injection test (BOOPMI Inj); conditions: 168 h, injection into adult engorged female ticks, egg deposition after 7 days, read-out: activity (efficacy: 100% means all eggs are infertile); for pest or weed control at 0.004 mg: application rate 4 μg/tick; for pest or weed control at 0.02 mg: application rate 20 μg/tick
How it was run: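 Five engorged adult female R. microplus ticks injected into the abdomen with 1 μL of compound diluted in DMSO, then kept in a climate chamber. Fertile egg deposition checked after 7 days; eggs without visible fertility held until hatching at about 42 days. Efficacy: 100% = all eggs infertile, 0% = all fertile.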

Rhipicephalus microplus [4] = test: Rhipicephalus (Boophilus) microplus dip test (BOOPMI Dip); conditions: 168 h, application rate 100 ppm, engorged adult female ticks, after 7 days, read-out: activity (efficacy: 100% means all eggs are infertile)
Description: Rhipicephalus (Boophilus) Microplus—Dip Test (BOOPMI Dip)
Test Animal: cattle ticks (Rhipicephalus microplus) strain parkhurst, SP-resistant Solvent: dimethyl sulfoxide
To produce a suitable preparation of active compound, 10 mg of active compound are dissolved in 0.5 mL solvent, and the concentrate is diluted with water to the desired concentration.
This compound solution is pipetted into tubes. 8-10 engorged, adult, female cattle ticks (Rhipicephalus microplus) are placed in perforated tubes. These tubes are immersed in the aqueous compound solution until the ticks are completely moistened. After the liquid has drained off, the ticks are transferred to a filter paper in a plastic tray and stored in a climate chamber.
After 7 days egg deposition of fertile eggs is monitored. Eggs where fertility is not visible are stored in a climate chamber till hatching after about 42 days. An efficacy of 100% means all eggs are infertile; 0% means all eggs are fertile.

Ctenocephalides felis [5] = test: Ctenocephalides felis oral test (CTECFE Oral); conditions: 48 h, read-out: activity (mortality)
How it was run: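 About 20 unfed adult cat fleas fed through parafilm on cattle blood containing compound (DMSO concentrate diluted in blood to the desired concentration). Blood held at 37 °C, fleas at room temperature. Mortality (%) scored after 2 days.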

Spodoptera frugiperda = Spodoptera frugiperda spray test; conditions: in Zea mays, 168 h, read-out: activity (mortality)
How it was run: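 Maize leaf sections were sprayed with compound formulated in acetone/DMF and diluted in water containing 1000 ppm emulsifier. Dried leaves were infested with fall armyworm larvae, and percent mortality was scored after 7 days.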

Diabrotica balteata = Diabrotica balteata spray test; conditions: 168 h, wheat seeds, larvae, after 7 days, read-out: activity (efficacy: 100% means all seedlings have grown up like in the untreated, uninfected control); for pest or weed control at 32 µg/disc, 100 g/ha: application rate 100 g/ha (=32 μg/well); for pest or weed control at 160 µg/disc, 500 g/ha: application rate 500 g/ha (=160 μg/well)
How it was run: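 Wheat seedlings, germinated 1 day on agar, were sprayed with compound in acetone/DMF diluted in water containing emulsifier, then infested with 10-20 Diabrotica balteata larvae. After 7 days efficacy in % was scored: 100% means seedlings grew like the untreated, uninfected control; 0% means none grew.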

Nezara viridula = Nezara viridula spray test; conditions: in Hordeum vulgare, 96 h, application rate 500 g/ha, barley plants, larvae, after 4 days
How it was run: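 Barley plants infested with N. viridula larvae were sprayed with compound in acetone/DMF diluted with water containing 1000 ppm alkylarylpolyglycol ether emulsifier. Mortality (%) was scored after 4 days; 100% means all bugs killed, 0% none.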

[6] = test system: Aedes aegypti strain MONHEIM; test: Aedes aegypti test (AEDSAE surface treatment & contact assay); conditions: surface concentration 20 mg/m^2, glazed tile, exposure 30 minutes, 24 hours after contact, read-out: efficacy (mortality)
How it was run: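 Compound dissolved in acetone (2 mg/ml) with 2000 ppm rapeseed oil methyl ester, pipetted onto glazed tile and dried. Adult mosquitoes exposed on the surface for 30 min; percent mortality scored 24 h after contact.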

Ctenocephalides felis [7] = test: Ctenocephalides felis in-vitro contact test, adult cat flea (CTECFE Cont); conditions: application rate 5 μg/cm^2 (=500 g/ha), adult cat fleas, after 48 hours, read-out: activity (efficacy: 100% means all fleas are dead or moribund)
How it was run: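 Acetone solutions coated on glass tube inner walls (900 ppm giving 5 μg/cm^2), then 5-10 adult fleas added and held 48 h at room temperature. Fleas unable to escape a 45-50° C. heating plate within 5 min scored dead or moribund; efficacy = % dead/moribund.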

Nilaparvata lugens = Nilaparvata lugens spray test; conditions: 96 h, rice plants, after 4 days; for mortality at 100 g/ha: application rate 100 g/ha
Description: Nilaparvata lugens—Spray Test Solvent: 78.0 parts by weight of acetone • • 1.5 parts by weight of dimethylformamide Emulsifier: alkylarylpolyglycol ether
To produce a suitable preparation of active compound, 1 part by weight of active compound is mixed with the stated amount of solvents and is diluted with water, containing an emulsifier concentration of 1000 ppm, to the desired concentration. Further test concentrations are prepared by dilution with emulsifier containing water.
Rice plants (Oryza sativa) are sprayed with a preparation of the active ingredient of the desired concentration and the plants are infested with the brown planthopper (Nilaparvata lugens).
After 4 days mortality in % is determined. 100% means all planthoppers have been killed and 0% means none of the planthoppers have been killed.

[8] = test system: Culex quinquefasciatus strain P00; test: Culex quinquefasciatus test (CULXFA surface treatment & contact assay); conditions: surface concentration 20 mg/m^2, glazed tile, exposure 30 minutes, 24 hours after contact, read-out: efficacy (mortality)
Description: Culex quinquefasciatus Test (CULXFA Surface Treatment & Contact Assay) Solvent: Aceton+2000 ppm rapeseed oil methyl ester (RME)
(§1) In order to produce a sufficient, active ingredient containing solution it is necessary to solve the test compound in the solvent-mix (acetone at 2 mg/ml/RME 2 000 ppm). This solution is pipetted onto a glazed tile and after evaporation of the acetone, adult mosquitoes of the species Culex quinquefasciatus strain P00 are placed onto the dried surface. The exposure time is 30 minutes. Mortality in percent (%) is determined 24 hours after contact of the insects to the treated surface. 100% mortality means that all tested insects are dead, whereas 0% means that no insect died.

Myzus persicae [9] = test: Myzus persicae spray test; conditions: in Brassica rapa, foliar, 120 h
How it was run: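 Compound in acetone/DMF solvent diluted in water with 1000 ppm alkylarylpolyglycol ether emulsifier, sprayed onto Chinese cabbage leaf disks infested with all instars of Myzus persicae. Mortality (%) scored after 5 days.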

[10] = test system: Anopheles funestus strain FUMOZ-R; test: Anopheles funestus test (ANPHFU surface treatment & contact assay); conditions: exposure 30 minutes, 24 hours after contact, read-out: efficacy (mortality); for mortality at 20 mg/m2: surface concentration 20 mg/m^2, glazed tile
Description: Anopheles funestus Test (ANPHFU Surface Treatment & Contact Assay) Solvent: Aceton+2000 ppm rapeseed oil methyl ester (RME)
as §1, with “2000” for “2 000”, “Anopheles funestus” for “Culex quinquefasciatus”, “FUMOZ-R (Hunt et al., Med. Vet. Entomol. 2005 September; 19(3): 271-275)” for “P00”

[11] = test system: Musca domestica strain WHO—N; test: Musca domestica test (MUSCDO surface treatment & contact assay); conditions: surface concentration 20 mg/m^2, glazed tile, exposure 30 minutes, 24 hours after contact, read-out: efficacy (mortality)
How it was run: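 Compound dissolved in acetone (2 mg/ml) with 2000 ppm rapeseed oil methyl ester and pipetted onto glazed tile; after acetone evaporation, adult flies exposed to dried surface for 30 minutes. Mortality (%) scored 24 hours after contact.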

Row | Structure (SMILES) | pest or weed control at 1 µg/cm2, 100 g/ha (Rhipicephalus sanguineus) [%] | pest or weed control at 5 µg/cm2 (Rhipicephalus microplus [1]) [%] | pest or weed control at 0.004 mg (Rhipicephalus microplus [3]) [%] | pest or weed control at 0.02 mg (Rhipicephalus microplus [3]) [%] | mortality at 100 ppm (Ctenocephalides felis [5]) [%] | mortality at 100 g/ha (Spodoptera frugiperda) [%] | mortality at 500 g/ha (Spodoptera frugiperda) [%] | pest or weed control at 32 µg/disc, 100 g/ha (Diabrotica balteata) [%] | pest or weed control at 160 µg/disc, 500 g/ha (Diabrotica balteata) [%] | mortality at 500 g/ha (Nezara viridula) [%] | mortality at 20 mg/m2 [6] [%] | pest or weed control at 5 µg/cm2, 500 g/ha (Rhipicephalus sanguineus) [%] | mortality at 20 mg/m2 [8] [%] | also measured
1 | CC(C)c1nc([C@H](C)NC(=O)c2cc(C(F)(F)F)cc(C(F)(F)F)c2)n(-c2ccc(C#N)cn2)n1 [I-7] | 100 | 100 | 100 | 100 | 100 | 100 | 83 | 100 | 100 | 100 | – | – | – | mortality at 4 ppm (Myzus persicae [2]): 100%; pest or weed control at 100 ppm (Rhipicephalus microplus [4]): 100%
2 | CC(C)c1nc([C@H](C)NC(=O)c2cc(Cl)cc(C(F)(F)F)c2)n(-c2ccc(C#N)cn2)n1 [I-8] | – | 80 | 100 | 100 | – | 100 | 100 | 100 | 100 | – | 80 to 100 | – | – | pest or weed control at 5 µg/cm2 (Ctenocephalides felis [7]): 80%; pest or weed control at 100 ppm (Rhipicephalus microplus [4]): 100%
3 | CC(C)c1nc([C@H](C)NC(=O)c2cc(Br)cc(OC(F)(F)F)c2)n(-c2ccc(C#N)cn2)n1 [I-26] | 80 | 100 | 100 | 100 | – | 100 | – | 100 | – | – | 80 to 100 | 100 | – | mortality at 100 g/ha (Nilaparvata lugens): 90%
4 | C[C@H](NC(=O)c1cc(Cl)cc(C(F)(F)C(F)(F)F)c1)c1nc(C2CC2)nn1-c1ccc(C#N)cn1 [I-43] | – | 100 | 100 | – | 100 | 100 | – | 100 | – | – | – | – | – | mortality at 100 g/ha (Nilaparvata lugens): 90%
5 | CC(C)C(=O)Nc1ccc(-n2ncnc2[C@H](C)NC(=O)c2cc(Cl)cc(C(F)(F)F)c2)nc1 [II-2, 3-chloro-N-[(1S)-1-{1-[5-(isobutyrylamino)pyridin-2-yl]-1H-1,2,4-triazol-5-yl}ethyl]-5-(trifluoromethyl)benzamide] | – | 100 | 100 | 100 | 100 | – | – | 100 | 100 | 90 | – | – | 80 to 100 | pest or weed control at 5 µg/cm2 (Ctenocephalides felis [7]): 90%; mortality at 100 g/ha (Myzus persicae [9]; read-out: activity (mortality), application rate 100 g/ha, spray, Chinese cabbage leaf disks, after 5 days): 100%; mortality at 500 g/ha (Myzus persicae [9]; read-out: activity (mortality), application rate 500 g/ha, spray, Chinese cabbage leaf disks, after 5 days): 90%
6 | C[C@H](NC(=O)c1cccc(C(F)(F)F)n1)c1ncnn1-c1ccc(C#N)cn1 [II-4] | 100 | – | – | 100 | – | 100 | 100 | 80 | 100 | – | 80 to 100 | 100 | 80 to 100 | mortality at 4 mg/m2 ([10]; surface concentration 4 mg/m^2, glazed tile): 80 to 100%; mortality at 20 mg/m2 [10]: 80 to 100%; mortality at 20 mg/m2 [11]: 80 to 100%
7 | C[C@H](NC(=O)c1cc(Cl)cc(C(F)(F)F)c1)c1ncnn1-c1cc(-n2ccc(C(F)(F)F)n2)ccn1 [II-42] | – | 90 | 80 | 0 | – | 100 | 100 | 100 | 100 | – | – | – | 80 to 100 | mortality at 20 mg/m2 [10]: 80 to 100%
8 | C[C@H](NC(=O)c1cc(C(F)(F)F)cc(C(F)(F)F)c1)c1ncnn1-c1ccc(S(C)(=O)=O)cn1 [II-44] | 100 | 100 | 100 | 100 | – | 100 | 100 | 100 | 100 | 100 | – | 100 | – | mortality at 500 g/ha (Nilaparvata lugens; application rate 500 g/ha): 90%; mortality at 4 ppm (Myzus persicae [2]): 100%
